Test results reported in article PMC2801615, “Sex Pheromone Receptor Specificity in the European Corn Borer Moth, Ostrinia nubilalis” (PLoS ONE, 2010).

Columns and labels:
OnOr1/2 = target: T1, OnOr1/2 (Ostrinia nubilalis, UniProt D3J5H4); assay: two-electrode voltage clamp, Xenopus oocytes; type: cell-based; details: read-out: EC50 (μM ± SEM)
T1 construct: gene OR1; full-length ORF (421-425 residues for the set) in pGEMHE; cRNA co-injected with OnOr2 in Xenopus oocytes; dimer with Or83b ortholog; with Odorant receptor coreceptor
T1 sequence (D3J5H4 1-424): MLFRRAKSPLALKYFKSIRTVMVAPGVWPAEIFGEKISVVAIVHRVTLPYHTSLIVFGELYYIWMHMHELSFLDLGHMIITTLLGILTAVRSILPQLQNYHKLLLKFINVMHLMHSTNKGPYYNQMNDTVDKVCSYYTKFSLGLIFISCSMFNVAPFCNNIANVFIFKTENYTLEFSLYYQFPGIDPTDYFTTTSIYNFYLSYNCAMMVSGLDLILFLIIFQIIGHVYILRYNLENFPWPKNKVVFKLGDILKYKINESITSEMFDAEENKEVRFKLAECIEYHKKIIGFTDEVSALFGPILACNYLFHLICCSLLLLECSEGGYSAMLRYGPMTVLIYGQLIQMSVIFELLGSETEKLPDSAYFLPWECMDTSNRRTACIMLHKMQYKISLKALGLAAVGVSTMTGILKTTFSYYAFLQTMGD
T1 sequence (D3J5H5 1-473 partner): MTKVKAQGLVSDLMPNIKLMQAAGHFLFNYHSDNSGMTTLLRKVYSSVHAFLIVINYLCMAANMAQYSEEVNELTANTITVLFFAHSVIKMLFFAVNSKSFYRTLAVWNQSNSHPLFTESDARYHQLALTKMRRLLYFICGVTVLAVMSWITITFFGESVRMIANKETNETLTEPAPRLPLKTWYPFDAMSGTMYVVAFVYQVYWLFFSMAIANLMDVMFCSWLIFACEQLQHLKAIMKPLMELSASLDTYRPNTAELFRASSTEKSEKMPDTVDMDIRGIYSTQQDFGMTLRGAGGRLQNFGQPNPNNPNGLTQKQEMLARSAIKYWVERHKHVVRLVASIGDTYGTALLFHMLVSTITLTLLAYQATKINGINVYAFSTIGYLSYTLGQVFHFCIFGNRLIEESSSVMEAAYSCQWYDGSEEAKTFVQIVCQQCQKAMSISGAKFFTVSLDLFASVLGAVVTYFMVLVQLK
Description: two-electrode voltage clamp, Xenopus oocytes on OnOr1/2

OnOr6/2 = target: T2, OnOr6/2 (Ostrinia nubilalis, UniProt D3J5H9); assay: two-electrode voltage clamp, Xenopus oocytes; type: cell-based; details: read-out: EC50 (μM ± SEM)
T2 construct: gene OR6; full-length ORF (421-425 residues for the set) in pGEMHE; cRNA co-injected with OnOr2 in Xenopus oocytes; dimer with Or83b ortholog; with Odorant receptor coreceptor
T2 sequence (D3J5H9 1-421): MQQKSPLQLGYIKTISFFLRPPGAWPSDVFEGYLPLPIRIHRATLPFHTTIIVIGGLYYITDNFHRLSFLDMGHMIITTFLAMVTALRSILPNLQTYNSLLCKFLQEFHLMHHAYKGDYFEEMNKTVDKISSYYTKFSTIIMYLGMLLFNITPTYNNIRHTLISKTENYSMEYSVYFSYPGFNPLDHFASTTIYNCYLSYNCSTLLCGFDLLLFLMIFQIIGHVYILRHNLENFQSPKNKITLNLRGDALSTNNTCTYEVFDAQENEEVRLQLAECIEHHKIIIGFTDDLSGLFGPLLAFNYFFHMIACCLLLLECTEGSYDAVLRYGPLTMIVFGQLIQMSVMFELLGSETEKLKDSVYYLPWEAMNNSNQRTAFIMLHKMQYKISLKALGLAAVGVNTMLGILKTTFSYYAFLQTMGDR
T2 sequence (D3J5H5 1-473 partner): T1 sequence (D3J5H5 1-473 partner)
Description: two-electrode voltage clamp, Xenopus oocytes on OnOr6/2

C/C=C\CCCCCCCCCCCOC(C)=O [Z12, Z12–14:OAc]
EC50 (OnOr1/2): 2.73 ± 0.24 µM

CC/C=C/CCCCCCCCCCOC(C)=O [E11, E11–14:OAc]
EC50 (OnOr1/2): 1.92 ± 0.2 µM

C/C=C/CCCCCCCCCCCOC(C)=O [E12, E12–14:OAc]
EC50 (OnOr1/2): 0.26 ± 0.05 µM

CC/C=C\CCCCCCCCCCOC(C)=O [Z11, Z11–14:OAc]
EC50 (OnOr1/2): 0.34 ± 0.05 µM
EC50 (OnOr6/2): 0.86 ± 0.27 µM

CCCC/C=C\CCCCCCCCOC(C)=O [Z9, Z9–14:OAc]
EC50 (OnOr1/2): 1.54 ± 0.33 µM
